The text below walks through data of US12617776B2 (priority 2020, dated 2026).

A short description of data set [1]: physchem. As to the method: The aliquot volumes were typically 25-100 μL.
From the infrared (IR) transmission data of the sample vials, dissolution and precipitation events were recorded as the point of complete transmission of IR and the onset of turbidity by IR respectively.
Samples were held at ambient temperature for 18 hours to maximize the chance of precipitation. Any recoverable solids were analyzed by XRPD.

Data set [2] can be described thus: physchem. To be noted: 25 °C, pH 6.6, water, thermodynamic from solid. As to the method:
The mixture was stirred and after 30 minutes a thick suspension was formed. Further aliquots (20 μL) of water were added until a fine suspension was formed. This was stirred at 25° C. overnight and filtered to yield a clear solution. The solution was weighed and evaporated to constant weight to determine the solubility.

Data set [3] in a line: physchem. To be noted: water, thermodynamic from solid.
Protocol: The aliquot volumes were typically 10-20 μL. Complete dissolution of the test material was determined by visual inspection. The solubility was estimated from these experiments based on the total solvent used to provide complete dissolution.
Data set [4] in a line: Salt screening experiments of AAT-730 (XRPD of isolated solids). To be noted: salt screen. As to the method: Solutions of the free base in the chosen solvent were added to either solutions of the salt former, or if the salt was not soluble in the solvent, slurries of the salt formers. Any solids which precipitated were recovered and analyzed by XRPD analysis to determine if the solid was crystalline.
The required acid (1 molar equivalent) was added to each HPLC vial and the API stock solution (containing 30 mg of API) was added. The mixtures were stirred at 300 rpm (ambient temperature) for up to 16 hours. Any solids which precipitated were isolated by centrifugation, solvent decanted and solids dried with thin strips of filter paper prior to analysis by XRPD. Any solutions were evaporated to dryness and solids analyzed by XRPD. Gels were either triturated or temperature cycled in MTBE.
API (30 mg), acid co-former (1 mol. eq.) and ethanol (300 μL) were added to HPLC vials and stirred at 40° C. for up to 16 hours. Solids were recovered by centrifugation, solvent decanted and dried with thin strips of filter paper prior to analysis by XRPD. Solutions were evaporated to dryness.
Gels isolated from the screening experiments were triturated in either MTBE or EtOAc to induce precipitation. MTBE or EtOAc (200 μL) was added to the gel and stirred at 40° C. for up to 3 hours prior to cooling to ambient and stirring for up to 48 hours. Any solids were isolated by centrifugation, solvent decanted and solids dried with thin strips of filter paper prior to analysis by XRPD. Any solutions were evaporated to dryness.
Gels isolated from screening experiments were temperature cycled in MTBE according to the following program: • Heating from 20° C. to 40° C. at 0.2° C./minute. • Cooling to 20° C. at 0.1° C./minute. • Stirring speed 400 rpm.
The vials were sealed and the contents milled using a Fritsch Pulverisette 5 planetary mill (30 repetitions of 20 minutes milling at 400 rpm and 20 minutes pause). The resultant material was analyzed using XRPD.
Some of the acid co-formers had pKa values which were suitable for forming either hemi or bis-salts and experiments were carried out using these acids. Crystalline solids were isolated from the experiments using 0.5 mol. eq. of EDSA but these appeared to be composed of polymorphs of the free base and salt formation hadn't occurred with 0.5 mol. eq. of EDSA. The EDSA salt formed with 2 mol. eq. of EDSA yielded solids with the same XRPD pattern as the mono-EDSA salt. Two different crystalline salts were isolated from the reactions with HCl and these may be the mono and bis-HCl salts, however stoichiometry cannot be determined by ^1H NMR. The salt formation with MSA yielded the bis-MSA salt and this is discussed in Example 3-16. The salt isolated with glutaric acid has the same XRPD pattern as the salt isolated with 1 mol. eq. of glutaric acid and is a mono-glutarate salt (Example 3-17). A solid was isolated from the experiment with 2 mol. eq. of sulfuric acid and this may be a sulfate.

The nature of data set [5]: Thermal stressing of AAT-730 free base forms (Method 2-9). The class given is physicochemical. To be noted: for XRPD after thermal stress: sealed vial, several days.
The nature of data set [6]: Solubility estimation of AAT-730 by aliquot addition. The class given is physicochemical. To be noted: for Solubility range: 20° C. As to the method: The aliquot volumes were typically 20-200 μL. […] Samples were held at ambient temperature for at least 18 hours to maximize the chance of precipitation. Any recoverable solids were analyzed by XRPD.
A short description of data set [7]: Humidity and temperature stressing of AAT-730 free base (XRPD, 1H NMR). Format: physicochemical. Particulars: for XRPD analysis of post-stressed sample (physical form): 7 days. As to the method:
The stability was also tested at a range of elevated relative humidity conditions for 7 days.

Values after ≈ are worked out from the molar mass of the structure shown. “Also recorded” adds a separate entry of the source. Structures can show the parent of a compound that is named as a salt. A value given as a limit tells only on which side of the number the result lay.

In the case of `CN(C)CCn1c(CC(C)(C)C)nc2cc(S(=O)(=O)C3CN(CCO)C3)ccc21` [AAT-730 HCl salt, HCl salt of 2-[3-({1-[2-(dimethylamino)ethyl]-2-(2,2-dimethylpropyl)-1H-1,3-benzodiazol-5-yl}sulfonyl)azetidin-1-yl]ethan-1-ol], the solubility is 205 to 273 mg/mL in the data set “physchem [1]” (20 °C, aqueous with cosolvent or surfactant or cyclodextrin, thermodynamic from solid, Solubility at 20° C., EtOH/water (50/50), aliquot addition); 22 to 25 mg/mL in “physchem [1]” (20 °C, organic solvent or mixture, thermodynamic from solid, Solubility at 20° C., DMSO/water (80/20, Aw at most 0.27), aliquot addition); < 20 mg/mL in “physchem [1]” (20 °C, organic solvent or mixture, thermodynamic from solid, Solubility at 20° C., THF/water (13/1, Aw at most 0.9), aliquot addition); < 20 mg/mL in “physchem [1]” (20 °C, organic solvent or mixture, thermodynamic from solid, Solubility at 20° C., acetone, aliquot addition); < 20 mg/mL in the data set “physchem [1]” (20 °C, organic solvent or mixture, thermodynamic from solid, Solubility at 20° C., acetone/water (20/1, Aw at most 0.6), aliquot addition); < 21 mg/mL in the data set “physchem [1]” (20 °C, organic solvent or mixture, thermodynamic from solid, Solubility at 20° C., acetonitrile, aliquot addition). For the same compound, the solubility was < 20 mg/mL in “physchem [1]” (20 °C, organic solvent or mixture, thermodynamic from solid, Solubility at 20° C., dichloromethane, aliquot addition); < 21 mg/mL in “physchem [1]” (20 °C, organic solvent or mixture, thermodynamic from solid, Solubility at 20° C., ethanol, aliquot addition); < 20 mg/mL in the data set “physchem [1]” (20 °C, organic solvent or mixture, thermodynamic from solid, Solubility at 20° C., methanol, aliquot addition); < 20 mg/mL in the data set “physchem [1]” (20 °C, organic solvent or mixture, thermodynamic from solid, Solubility at 20° C., tetrahydrofuran, aliquot addition); ≥ 20 mg/mL in “physchem [1]” (aqueous with cosolvent or surfactant or cyclodextrin, thermodynamic from solid, solubility); ≥ 20 mg/mL in the data set “physchem [1]” (organic solvent or mixture, thermodynamic from solid, solubility, DMSO/water (80/20), ambient temperature, aliquot addition). Further, the thermodynamic solubility in the data set “physchem [2]” was ~220 mg/mL.
For `CN(C)CCn1c(CC(C)(C)C)nc2cc(S(=O)(=O)C3CN(CCO)C3)ccc21` [AAT-730 HCl salt Pattern 1], the solubility entry in the data set “physchem [1]” (DMSO/water (80/20), ambient temperature, aliquot addition) was “greater than or equal to 20 mg/mL”; in “physchem [3]”, 164 to 205 mg/mL.
`CN(C)CCn1c(CC(C)(C)C)nc2cc(S(=O)(=O)C3CN(CCO)C3)ccc21` [AAT-730 HCl salt Pattern 2] registered a solubility in “physchem [1]” (pH 6, water, thermodynamic from solid, aqueous solubility, water, pH 6-7, aliquot addition) of 197 to 263 mg/mL.
`CN(C)CCn1c(CC(C)(C)C)nc2cc(S(=O)(=O)C3CN(CCO)C3)ccc21` [AAT-730, 2-[3-({1-[2-(dimethylamino)ethyl]-2-(2,2-dimethylpropyl)-1H-1,3-benzodiazol-5-yl}sulfonyl)azetidin-1-yl]ethan-1-ol]: the “XRPD Result” value in data set [4] (EDSA 2 mol. eq., THF, sample CAT0001E-019-04) is recorded as “AAT-730 EDSA”; in data set [4] (H2SO4 2 mol. eq., THF, sample CAT0001E-019-08), “possible sulfate Pattern B”; in data set [4] (HCl 2 mol. eq., EtOH, sample CAT0001E-019-05B) it was “AAT-730 HCl Pattern B”; in data set [4] (HCl 2 mol. eq., THF, sample CAT0001E-019-05), “AAT-730 HCl Pattern A**”; in data set [4] (L-aspartic acid 0.5 mol. eq., THF, sample CAT0001E-019-09), “API”; in data set [4] (L-glutamic acid 0.5 mol. eq., THF, sample CAT0001E-019-11), “API”. The “XRPD Result” value is “AAT-730 MSA Pattern B” in data set [4] (MSA 2 mol. eq., THF, sample CAT0001E-019-06) and “AAT-730 glutarate” in data set [4] (glutaric acid 0.5 mol. eq., THF, sample CAT0001E-019-12). Moreover, the “XRPD after thermal stress” value in data set [5] (40° C.) and in data set [5] (60° C.) was “Pattern A +” each time. Besides, the “physical stability to thermal stressing” value in data set [5] (at the temperatures tested (40 or 60° C.)) is “physically unstable”. The Solubility range in data set [6] (2-propanol, isopropyl alcohol (IPA)) is 81 to 87 mg/mL; in data set [6] (EtOH/water (96/4, Aw at most 0.25)) it was 313 to 417 mg/mL; in data set [6] (MeOH/water (84/16, Aw at most 0.44)), 638 to 1275 mg/mL; in data set [6] (THF/water (96/4, Aw at most 0.74)), 410 to 615 mg/mL; in data set [6] (acetone), 118 to 157 mg/mL; in data set [6] (acetone/water (50/50, Aw at most 0.91)) it was 618 to 1235 mg/mL. For the same compound, the Solubility range was 145 to 164 mg/mL in data set [6] (acetonitrile (ACN)); 58 to 60 mg/mL in data set [6] (anisole); <24 mg/mL in data set [6] (cyclohexane); 360 to 504 mg/mL in data set [6] (dichloromethane (DCM)); 242 to 303 mg/mL in data set [6] (dimethyl sulfoxide (DMSO)); 117 to 129 mg/mL in data set [6] (dioxane). The Solubility range in data set [6] (ethanol (EtOH)) was 213 to 256 mg/mL; in data set [6] (ethyl acetate (EtOAc)) it was 27 to 28 mg/mL; in data set [6] (methanol (MeOH)), >510 mg/mL; in data set [6] (methyl isobutyl ketone (MIBK)) it was <26 mg/mL; in data set [6] (methyl tert-butyl ether (MTBE)), <26 mg/mL; in data set [6] (tetrahydrofuran (THF)) it was 246 to 492 mg/mL. Moreover, in data set [6] (toluene), the Solubility range was <25 mg/mL. Further, the solubility in data set [6] (thermodynamic from solid, water, ambient temperature, aliquot addition, read-out: aqueous solubility) is 367 to 514 mg/mL (≈ 868 to 1220 mM). In addition, the “1H NMR analysis of post-stressed samples” value in data set [7] (1 week at 25° C./60% RH, 40° C./75% RH, 70° C./75% RH) is “no change”. For the same compound, the “XRPD analysis of post-stressed sample (physical form)” value is recorded as “remained as an anhydrate” in data set [7] (25° C./60% RH); “change in form to the hydrate; also recorded: converted to a hydrate” in data set [7] (40° C./75% RH, listed as AAT-730 free base); “change in form to the hydrate; also recorded: converted to a hydrate” in data set [7] (70° C./75% RH, listed as AAT-730 free base).

The solubility is how much of the substance goes into solution per volume. One may read the thermodynamic solubility as solubility found after equilibrating the solid with the medium.
